Measured values published in patent US20100311714A1, “1H-IMIDAZO[4,5-c]QUINOLINONE COMPOUNDS” (priority 2009, published 2010).
Where two headings read alike, the source gives them in different places.

Target: T1, PI3K beta (Homo sapiens, UniProt P42338)
T1 construct: for the full-length p110-b subunit are generated and fused by overlapping PCR; His tag (C); made in house; host or cells: baculovirus BV949; Tn5 (Trichoplusia ni) or TiniPro insect cells
Test: PI3K beta kinase assay (Kinase-Glo luminescence)
Assay type: biochemical
Protocol: In a more preferred assay, the kinase reaction is performed in a final volume of 10 μL per well of a low volume non binding CORNING, 384 well black plate (Cat. No. #3676). The final concentrations of ATP and phosphatidyl inositol (PI) in the assay are 1 μM and 10 μg/mL respectively. The reaction is started by the addition of ATP.
The components of the assay are added per well as follows:
50 nL test compounds in 90% DMSO per well, in columns 1-20, 8 concentrations (⅓ and 1/3.33 serial dilution step) in single. • Low control: […] of 90% DMSO in half the wells of columns 23-24 (0.45% in final). • High control: 50 nL of reference compound (e.g. compound of Example 7 in WO 2006/122806) in the other half of columns 23-24 (2.5 μM in final). • Standard: 50 nL of reference compound as just mentioned diluted as the test compounds in columns 21-22 • 20 mL ‘buffer’ are prepared per assay: • 200 μL of 1M TRIS HCl pH7.5 (10 mM in final) • 60 μL of 1M MgCl2 (3 mM in final) • 500 μL of 2M NaCl (50 mM in final) • 100 μL of 10% CHAPS (0.05% in final) • 200 μL of 100 mM DTT (1 mM in final) • 18.94 mL of nanopure water • 10 mL ‘PI’ are prepared per assay: • 200 μL of 1 mg/ml L-alpha-Phosphatidylinositol (Liver Bovine, Avanti Polar Lipids Cat. No. 840042C MW=909.12) prepared in 3% OctylGlucoside (10 μg/ml in final) • 9.8 mL of ‘buffer’ • 10 mL ‘ATP’ are prepared per assay: • 6.7 μL of 3 mM stock of ATP giving a final concentration of 1 μM per well • 10 mL of ‘buffer’ • 2.5 mL of each PI3K construct are prepared per assay in ‘PI’ with the following final concentration: • 10 nM PI3K alfa EMV B1075 • 25 nM beta EMV BV949 • 10 nM delta EMV BV1060 • 150 nM gamma EMV BV950 • 5 μL of ‘PI/PI3K’ are added per well. • 5 μl ‘ATP’ are added per well to start the reaction. • The plates are then incubated at room temperature for 60 minutes (alfa, beta, delta) or 120 minutes (gamma). • The reaction is terminated by the addition of 10 μL Kinase-Glo (Promega Cat. No. #6714). • The assay plates are read after 10 minutes in Synergy 2 reader (BioTek, Vermont USA) with an integration time of 100 milliseconds and sensitivity set to 191. • Output: The High control is around 60′000 counts and the Low control is 30′000 or lower • This luminescence assay gives a useful Z′ ratio between 0.4 and 0.7
PI3Kβ BV-949 p85(iSH2)-Gly linker-r 110b(full-length)-C-term His Tag
PI3K beta is purified in two chromatographic steps: immobilized metal affinity chromatography (IMAC) on a Ni Sepharose resin (GE Healthcare) and gel filtration (GFC) utilizing a Superdex 200 26/60 column (GE Healthcare). All buffers are chilled to 4° C. and lysis is performed chilled on ice. Column fractionation is performed rapidly at room temperature.
IC50 is determined by a four parameter curve fitting routine that comes along with “excel fit”. A 4 Parameter logistic equation is used to calculate IC50 values (IDBS XLfit) of the percentage inhibition of each compound at 8 concentrations (usually 10, 3.0, 1.0, 0.3, 0.1, 0.030, 0.010 and 0.003 μM). Alternatively, IC50 values are calculated using idbsXLfit model 204, which is a 4 parameter logistic model.

T1 sequence (P42338 with tags, fused parts or gaps limits assumed): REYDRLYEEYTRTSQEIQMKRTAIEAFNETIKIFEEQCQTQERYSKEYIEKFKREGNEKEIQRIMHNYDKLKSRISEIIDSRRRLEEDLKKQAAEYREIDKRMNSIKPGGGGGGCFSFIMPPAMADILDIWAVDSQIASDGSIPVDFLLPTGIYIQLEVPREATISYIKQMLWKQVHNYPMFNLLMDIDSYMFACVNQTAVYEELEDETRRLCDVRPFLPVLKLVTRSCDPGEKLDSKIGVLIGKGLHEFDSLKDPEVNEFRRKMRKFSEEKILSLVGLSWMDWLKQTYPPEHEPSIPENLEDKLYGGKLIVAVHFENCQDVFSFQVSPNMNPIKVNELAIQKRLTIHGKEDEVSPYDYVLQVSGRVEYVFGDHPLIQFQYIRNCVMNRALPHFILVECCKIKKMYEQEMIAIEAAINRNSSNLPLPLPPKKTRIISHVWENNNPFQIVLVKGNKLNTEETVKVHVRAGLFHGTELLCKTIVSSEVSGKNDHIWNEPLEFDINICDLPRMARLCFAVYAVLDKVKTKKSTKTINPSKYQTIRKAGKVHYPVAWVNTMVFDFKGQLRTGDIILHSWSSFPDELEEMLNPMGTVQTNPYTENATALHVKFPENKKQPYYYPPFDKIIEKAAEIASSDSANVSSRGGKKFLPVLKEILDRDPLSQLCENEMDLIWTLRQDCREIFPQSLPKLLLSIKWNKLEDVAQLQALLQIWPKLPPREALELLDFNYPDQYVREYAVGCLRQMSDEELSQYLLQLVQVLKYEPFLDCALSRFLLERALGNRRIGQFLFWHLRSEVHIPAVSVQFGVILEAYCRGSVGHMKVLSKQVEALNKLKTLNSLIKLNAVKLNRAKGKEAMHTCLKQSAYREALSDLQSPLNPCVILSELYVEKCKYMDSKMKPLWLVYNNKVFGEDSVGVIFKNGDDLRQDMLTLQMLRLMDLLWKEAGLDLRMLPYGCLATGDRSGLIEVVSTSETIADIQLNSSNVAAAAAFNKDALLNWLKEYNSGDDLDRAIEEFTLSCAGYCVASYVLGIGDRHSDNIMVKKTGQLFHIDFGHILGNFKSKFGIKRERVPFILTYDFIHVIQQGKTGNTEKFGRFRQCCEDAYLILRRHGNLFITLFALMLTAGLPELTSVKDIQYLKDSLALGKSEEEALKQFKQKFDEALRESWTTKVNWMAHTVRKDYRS

Structure (SMILES)	IC50 (read-out: PI3Kbeta/IC50) [nM]	IC50 (read-out: EPK_PI3Kbeta/IC50) [nM]
COc1ccc(-c2ccc3ncc4c(c3c2)n(-c2cccnc2C)c(=O)n4C)cc1OC [Example 2.9, 8-(3,4-Dimethoxy-phenyl)-3-methyl-1-(2-methyl-pyridin-3-yl)-1,3-dihydro-imidazo[4,5-c]quinolin-2-one]	77	
CCNc1ncc(-c2ccc3ncc4c(c3c2)n(-c2ccc(C(C)(C)O)nc2C)c(=O)n4C)cn1 [Example 31.7, 8-(2-Ethylamino-pyrimidin-5-yl)-1-[6-(1-hydroxy-1-methyl-ethyl)-2-methyl-pyridin-3-yl]-3-methyl-1,3-dihydro-imidazo[4,5-c]quinolin-2-one]		625
CCOc1ccc(-c2ccc3ncc4c(c3c2)n(-c2cccnc2F)c(=O)n4C)cn1 [Example 6.1, 8-(6-Ethoxy-pyridin-3-yl)-1-(2-fluoro-pyridin-3-yl)-3-methyl-1,3-dihydro-imidazo[4,5-c]quinolin-2-one]	223	
Cc1nc(C(C)(C)O)ccc1-n1c(=O)n(C)c2cnc3ccc(-c4cncc(C(C)(C)C#N)c4)cc3c21 [Example 31.6, 2-(5-{1-[6-(1-Hydroxy-1-methyl-ethyl)-2-methyl-pyridin-3-yl]-3-methyl-2-oxo-2,3-dihydro-1H-imidazo[4,5-c]quinolin-8-yl}-pyridin-3-yl)-2-methyl-propionitrile]		25
Cn1c(=O)n(-c2cccnc2)c2c3cc(-c4ccc(CO)nc4)ccc3ncc21 [Example 5.1, 8-(6-Hydroxymethyl-pyridin-3-yl)-3-methyl-1-pyridin-3-yl-1,3-dihydro-imidazo[4,5-c]quinolin-2-one]	801	
Cc1ncccc1-n1c(=O)n(C)c2cnc3ccc(-c4cncc(N)c4)cc3c21 [Example 2.25, 8-(5-Amino-pyridin-3-yl)-3-methyl-1-(2-methyl-pyridin-3-yl)-1,3-dihydro-imidazo[4,5-c]quinolin-2-one]		143
CNc1ncc(-c2ccc3ncc4c(c3c2)n(-c2ccc(C(C)(C)O)nc2C)c(=O)n4C)cc1F [Example 31.1, 8-(5-Fluoro-6-methylamino-pyridin-3-yl)-1-[6-(1-hydroxy-1-methyl-ethyl)-2-methyl-pyridin-3-yl]-3-methyl-1,3-dihydro-imidazo[4,5-c]quinolin-2-one]		217
Cc1nc(C(C)(C)O)ccc1-n1c(=O)n(C)c2cnc3ccc(-c4cnc(N)c(C(F)(F)F)c4)cc3c21 [Example 31.5, 8-(6-Amino-5-trifluoromethyl-pyridin-3-yl)-1-[6-(1-hydroxy-1-methyl-ethyl)-2-methyl-pyridin-3-yl]-3-methyl-1,3-dihydro-imidazo[4,5-c]quinolin-2-one]		9
CCOc1ccc(-c2ccc3ncc4c(c3c2)n(-c2ccc(C(C)(C)O)nc2C)c(=O)n4C)cn1 [Example 31.4, 8-(6-Ethoxy-pyridin-3-yl)-1-[6-(1-hydroxy-1-methyl-ethyl)-2-methyl-pyridin-3-yl]-3-methyl-1,3-dihydro-imidazo[4,5-c]quinolin-2-one]		342

The next lines start with the values.

IC50 (read-out: PI3Kbeta/IC50) [nM]	IC50 (read-out: EPK_PI3Kbeta/IC50) [nM]	Structure (SMILES)
	208	CCOc1cc(-c2ccc3ncc4c(c3c2)n(-c2ccc(N3CCC3)nc2C)c(=O)n4C)cnc1COC [Example 23.5, 1-(6-Azetidin-1-yl-2-methyl-pyridin-3-yl)-8-(5-ethoxy-6-methoxymethyl-pyridin-3-yl)-3-methyl-1,3-dihydro-imidazo[4,5-c]quinolin-2-one]
	193	COCc1ncc(-c2ccc3ncc4c(c3c2)n(-c2ccc(N3CCC3)nc2C)c(=O)n4C)cc1OC(C)C [Example 23.2, 1-(6-Azetidin-1-yl-2-methyl-pyridin-3-yl)-8-(5-isopropoxy-6-methoxymethyl-pyridin-3-yl)-3-methyl-1,3-dihydro-imidazo[4,5-c]quinolin-2-one]
	353	COCc1ncc(-c2ccc3ncc4c(c3c2)n(-c2ccc(N3CCC3)nc2C)c(=O)n4C)cc1OC [Example 23.6, 1-(6-Azetidin-1-yl-2-methyl-pyridin-3-yl)-8-(5-methoxy-6-methoxymethyl-pyridin-3-yl)-3-methyl-1,3-dihydro-imidazo[4,5-c]quinolin-2-one]
	677	CCNc1cc(-c2ccc3ncc4c(c3c2)n(-c2ccc(N3CC(O)C3)nc2C)c(=O)n4C)cnc1CO [Example 29.2, 8-(5-Ethylamino-6-hydroxymethyl-pyridin-3-yl)-1-[6-(3-hydroxy-azetidin-1-yl)-2-methyl-pyridin-3-yl]-3-methyl-1,3-dihydro-imidazo[4,5-c]quinolin-2-one]
	441	CNc1ccc(-c2ccc3ncc4c(c3c2)n(-c2ccc(N3CCC3)nc2C)c(=O)n4C)cn1 [Example 23.4, 1-(6-Azetidin-1-yl-2-methyl-pyridin-3-yl)-3-methyl-8-(6-methylamino-pyridin-3-yl)-1,3-dihydro-imidazo[4,5-c]quinolin-2-one]
	30	Cc1nc(C(C)(C)O)ccc1-n1c(=O)n(C)c2cnc3ccc(-c4cncc(C5(C#N)CCC5)c4)cc3c21 [Example 31.8, 1-(5-{1-[6-(1-Hydroxy-1-methyl-ethyl)-2-methyl-pyridin-3-yl]-3-methyl-2-oxo-2,3-dihydro-1H-imidazo[4,5-c]quinolin-8-yl}-pyridin-3-yl)-cyclobutanecarbonitrile]
	19	Cc1nc(N2CCC2)ccc1-n1c(=O)n(C)c2cnc3ccc(-c4cncc(C(C)(C)O)c4)cc3c21 [Example 23.3, 1-(6-Azetidin-1-yl-2-methyl-pyridin-3-yl)-8-[5-(1-hydroxy-1-methyl-ethyl)-pyridin-3-yl]-3-methyl-1,3-dihydro-imidazo[4,5-c]quinolin-2-one]
	9	Cc1nc(N2CCN(C)C(=O)C2)ccc1-n1c(=O)n(C)c2cnc3ccc(-c4cnc(N)c(C(F)(F)F)c4)cc3c21 [Example 21.1, 8-(6-Amino-5-trifluoromethyl-pyridin-3-yl)-3-methyl-1-[2-methyl-6-(4-methyl-3-oxo-piperazin-1-yl)-pyridin-3-yl]-1,3-dihydro-imidazo[4,5-c]quinolin-2-one]
	103	CNc1ncc(-c2ccc3ncc4c(c3c2)n(-c2ccc(N3CC[C@H](O)C3)nc2C)c(=O)n4C)cn1 [Example 32.1, 1-[6-((S)-3-Hydroxy-pyrrolidin-1-yl)-2-methyl-pyridin-3-yl]-3-methyl-8-(2-methylamino-pyrimidin-5-yl)-1,3-dihydro-imidazo[4,5-c]quinolin-2-one]
	171	Cc1nc(N2CCC2)ccc1-n1c(=O)n(C)c2cnc3ccc(-c4cncc(OC(C)C)c4)cc3c21 [Example 23.9, 1-(6-Azetidin-1-yl-2-methyl-pyridin-3-yl)-8-(5-isopropoxy-pyridin-3-yl)-3-methyl-1,3-dihydro-imidazo[4,5-c]quinolin-2-one]
